Results taken from patent US20100056563A1, “NOVEL 1.8-NAPHTHYRIDINE COMPOUNDS” (priority 2007, published 2010).
pIC50: −log10 of the molar value.

Target: T1, FLAG-tagged full length PHD2 (Homo sapiens, UniProt Q9GZT9)
T1 construct: FLAG-tagged full length PHD2; FLAG; made in house; host or cells: baculovirus-infected Sf9 cells
Experiment: HIF-PHD2 time resolved fluorescence inhibition assay (HIF-1α peptide hydroxylation, VHL complex detection)
Assay type: biochemical
Settings: 0.2 μM 2-oxoglutarate, 0.5 μM HIF-1α peptide, 2 hr at room temperature
Description: To each well of a 96-well plate was added […] of test compound in DMSO and 20 μl of assay buffer (50 mM Tris pH 7.4/0.01% Tween-20/0.1 mg/ml bovine serum albumin/10 μM ferrous sulfate/1 mM sodium ascorbate/20 μg/ml catalase) containing 0.15 μg/ml FLAG-tagged full length PHD2 expressed in and purified from baculovirus-infected Sf9 cells. After a […] preincubation at room temperature, the enzymatic reactions were initiated by the addition of 4 μL of substrates (final concentrations of 0.2 μM 2-oxoglutarate and 0.5 μM HIF-1α peptide biotinyl-DLDLEMLAPYIPMDDDFQL). After 2 hr at room temperature, the reactions were terminated and signals were developed by the addition of a 25 μL quench/detection mix to a final concentration of 1 mM ortho-phenanthroline, 0.1 mM EDTA, 0.5 nM anti-(His)6 LANCE reagent (Perkin-Elmer Life Sciences), 100 nM AF647-labeled streptavidin (Invitrogen), and 2 μg/ml (His)6-VHL complex (S. Tan (2001) Protein Expr. Purif. 21, 224-234). The ratio of time resolved fluorescence signals at 665 and 620 nm was determined, and percent inhibition was calculated relative to an uninhibited control sample run in parallel.

T1 sequence (Q9GZT9 whole entry): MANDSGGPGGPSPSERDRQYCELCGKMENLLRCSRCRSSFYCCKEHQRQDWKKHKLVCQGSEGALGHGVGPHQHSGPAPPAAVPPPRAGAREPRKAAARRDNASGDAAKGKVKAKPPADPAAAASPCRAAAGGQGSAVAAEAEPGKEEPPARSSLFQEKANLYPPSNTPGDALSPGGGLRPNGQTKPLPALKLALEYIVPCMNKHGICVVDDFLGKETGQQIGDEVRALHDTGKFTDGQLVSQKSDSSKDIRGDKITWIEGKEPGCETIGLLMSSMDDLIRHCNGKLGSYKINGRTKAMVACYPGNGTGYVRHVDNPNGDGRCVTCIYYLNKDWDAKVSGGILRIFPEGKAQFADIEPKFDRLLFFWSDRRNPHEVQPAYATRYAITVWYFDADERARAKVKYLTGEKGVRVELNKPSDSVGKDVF

| pIC50 | SMILES |
| --- | --- |
| 9.07 | O=C(O)CNC(=O)c1c(O)c2cccnc2n(Cc2ccc(C(F)(F)F)nc2)c1=O [Example 28, {[(4-Hydroxy-2-oxo-1-{[6-(trifluoromethyl)pyridin-3-yl]methyl}-1,2-dihydro-1,8 naphthyridin-3-yl)carbonyl}amino}acetic acid] |
| 8.57 | C[C@H](NC(=O)c1c(O)c2cccnc2n(Cc2nc3ccccc3s2)c1=O)C(=O)O [Example 30, (2S)-2-({[1-(1,3-Benzothiazol-2-ylmethyl)-4-hydroxy-2-oxo-1,2-dihydro-1,8-naphthyridin-3-yl]carbonyl}amino)propanoic acid] |
| 8.23 | C[C@H](NC(=O)c1c(O)c2cccnc2n(Cc2nc3cc(Cl)ccc3s2)c1=O)C(=O)O [Example 35, (2S)-2-[({1-[(5-Chloro-1,3-benzothiazol-2-yl)methyl]-4-hydroxy-2-oxo-1,2-dihydro-1,8-naphthyridin-3-yl}carbonyl)amino]propanoic acid] |
| 8.57 | C[C@H](NC(=O)c1c(O)c2cccnc2n(Cc2ccc(C(F)(F)F)nc2)c1=O)C(=O)O [Example 38, (2S)-2-{[(4-Hydroxy-2-oxo-1-{[6-(trifluoromethyl)pyridin-3-yl]methyl}-1,2-dihydro-1,8-naphthyridin-3-yl)carbonyl]amino}propanoic acid] |
| 8.09 | C[C@H](NC(=O)c1c(O)c2cccnc2n(Cc2ccc(C(F)(F)F)cc2F)c1=O)C(=O)O [Example 39, (2S)-2-[({1-[2-Fluoro-4-(trifluoromethyl)benzyl]-4-hydroxy-2-oxo-1,2-dihydro-1,8-naphthyridin-3-yl}carbonyl)amino]propanoic acid] |
| 8.82 | O=C(O)CNC(=O)c1c(O)c2cc(Cl)cnc2n(Cc2nc3ccccc3s2)c1=O [Example 40, ({[1-(1,3-Benzothiazol-2-ylmethyl)-6-chloro-4-hydroxy-2-oxo-1,2-dihydro-1,8-naphthyridin-3-yl]carbonyl}amino)acetic acid] |

| SMILES | pIC50 |
| --- | --- |
| O=C(O)CNC(=O)c1c(O)c2cc(Cl)cnc2n(Cc2ccc(C(F)(F)F)nc2)c1=O [Example 29, {[(6-Chloro-4-hydroxy-2-oxo-1-{[6-(trifluoromethyl)pyridin-3-yl]methyl}-1,2-dihydro-1,8 naphthyridin-3-yl)carbonyl]amino}acetic acid] | 9.19 |
